Laboratory results published in ChEMBL document CHEMBL1155546, “Rapid synthesis of an array of trisubstituted urea-based soluble epoxide hydrolase inhibitors facilitated by a novel solid-phase method” (Bioorg Med Chem Lett, 2010).

Key:
[1] = target: T1, Cytochrome P450 2J2 (Homo sapiens, UniProt P51589); assay: Inhibition of CYP2J2
T1 sequence (P51589 whole entry): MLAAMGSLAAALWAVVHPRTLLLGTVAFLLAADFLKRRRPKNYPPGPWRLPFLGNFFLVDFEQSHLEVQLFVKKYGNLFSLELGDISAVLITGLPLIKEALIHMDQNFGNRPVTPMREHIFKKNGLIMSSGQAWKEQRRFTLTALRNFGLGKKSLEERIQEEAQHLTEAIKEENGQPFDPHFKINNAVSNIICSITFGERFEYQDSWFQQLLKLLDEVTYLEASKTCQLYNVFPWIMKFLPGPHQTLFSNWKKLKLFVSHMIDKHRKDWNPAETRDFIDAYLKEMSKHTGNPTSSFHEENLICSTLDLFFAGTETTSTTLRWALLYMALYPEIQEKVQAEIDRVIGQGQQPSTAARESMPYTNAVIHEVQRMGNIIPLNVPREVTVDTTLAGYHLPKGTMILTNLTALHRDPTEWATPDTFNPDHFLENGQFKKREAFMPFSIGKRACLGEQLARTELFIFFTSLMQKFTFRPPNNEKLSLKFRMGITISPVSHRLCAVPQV

[2] = Half life in human liver microsome; type: ADME; details: liver microsomes
[3] = target: Cytochrome P450 2C9 (Homo sapiens, UniProt P11712); assay: Inhibition of CYP2C9; type: ADME
[4] = target: T2, Bifunctional epoxide hydrolase 2 (Homo sapiens, UniProt P34913); assay: Inhibition of human soluble epoxide hydrolase assessed as [2-3H]trans-1,3-diphenyl propylene oxide hydrolysis by cellular assay
T2 sequence (P34913 whole entry): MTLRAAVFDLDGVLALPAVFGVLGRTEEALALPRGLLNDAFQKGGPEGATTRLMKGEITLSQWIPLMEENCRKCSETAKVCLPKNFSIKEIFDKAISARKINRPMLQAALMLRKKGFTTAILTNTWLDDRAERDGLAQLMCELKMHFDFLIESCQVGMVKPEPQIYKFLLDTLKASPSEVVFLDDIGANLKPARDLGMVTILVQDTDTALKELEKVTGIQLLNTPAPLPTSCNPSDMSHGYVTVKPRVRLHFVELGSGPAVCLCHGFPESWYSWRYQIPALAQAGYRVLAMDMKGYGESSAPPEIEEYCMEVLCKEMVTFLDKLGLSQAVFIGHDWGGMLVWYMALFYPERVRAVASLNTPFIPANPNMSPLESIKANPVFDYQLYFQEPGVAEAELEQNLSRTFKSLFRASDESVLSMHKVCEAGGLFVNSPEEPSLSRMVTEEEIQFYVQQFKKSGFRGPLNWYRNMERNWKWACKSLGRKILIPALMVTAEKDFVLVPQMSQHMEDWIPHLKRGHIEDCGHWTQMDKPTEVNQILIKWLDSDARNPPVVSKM

[5] = Half life in mouse liver microsome; type: ADME; details: liver microsomes
[6] = target: T2, Bifunctional epoxide hydrolase 2; assay: Inhibition of human soluble epoxide hydrolase

Chain of Cytochrome P450 2C9 (P11712 whole entry): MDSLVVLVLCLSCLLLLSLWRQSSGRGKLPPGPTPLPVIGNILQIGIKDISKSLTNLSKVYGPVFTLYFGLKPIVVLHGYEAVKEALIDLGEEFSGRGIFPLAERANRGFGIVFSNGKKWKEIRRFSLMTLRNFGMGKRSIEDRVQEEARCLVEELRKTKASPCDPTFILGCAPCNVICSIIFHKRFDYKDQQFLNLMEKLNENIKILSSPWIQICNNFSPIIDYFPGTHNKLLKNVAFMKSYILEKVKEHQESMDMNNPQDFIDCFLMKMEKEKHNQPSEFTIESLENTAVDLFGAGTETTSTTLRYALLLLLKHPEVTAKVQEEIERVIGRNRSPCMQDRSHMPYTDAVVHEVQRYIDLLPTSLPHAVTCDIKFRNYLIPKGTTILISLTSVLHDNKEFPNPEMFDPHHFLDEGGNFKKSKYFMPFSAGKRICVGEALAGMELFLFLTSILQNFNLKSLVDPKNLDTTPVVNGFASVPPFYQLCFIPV

Compound | half-life [2] [min] | IC50 [3] [µM] | IC50 [4] [µM] | half-life [5] [min] | IC50 [6] [µM] | IC50 [1] [µM]
O=C(NCc1ccccc1OC(F)(F)F)N1CCC(c2ccncc2)C1 (stereo not drawn) | 23 | 0.3 | 0.076 | 42 | 0.007 | 10
O=C(NCc1ccccc1OC(F)(F)F)N1CCC(Oc2ccncc2)CC1 | 34 | 0.8 | – | 42 | 0.014 | 10
O=C(NCc1ccccc1OC(F)(F)F)N1CCC(Oc2ncccn2)CC1 | 54 | 10.2 | 0.04 | 10 | 0.004 | 2

Now from value to compound, other results behind:

half-life [2] [min] | IC50 [3] [µM] | IC50 [4] [µM] | half-life [5] [min] | IC50 [6] [µM] | Compound | IC50 [1] [µM]
7 | 2.9 | 0.013 | 2 | 0.001 | O=C(NCCC(c1ccc(F)cc1)c1ccc(F)cc1)N1CCC(Oc2cnccn2)CC1 | –
42 | 0.1 | 0.022 | 25 | 0.009 | O=C(NCc1ccc(Cl)cc1Cl)N1CCC(Oc2ccncc2)CC1 | 2.7
2 | 8.1 | 0.004 | 2 | 0.003 | O=C(NCCC(c1ccc(F)cc1)c1ccc(F)cc1)N1CCC(c2cnccn2)C1 (stereo not drawn) | –
